For 14 compounds, IC50 results are on record in patent US12577245B2, “Sulfonyl benzamide derivatives as Bcl-2 inhibitors” (ASCENTAGE PHARMA (SUZHOU) CO., LTD., priority 2021, dated 2026).

The structures appear in SMILES notation.

One test relates to MV-4-11 cells. Briefly: CCK-8 cell viability assay in MV-4-11 cells. Type of test: cell-based. Particulars: Homo sapiens, MV4-11, 72 h, 10% FBS, 3 days. As for the experimental part: MV-4-11 cells were obtained from University of Michigan. Cells were maintained in the RPMI-1640 medium with 10% FBS and 1% P/S at 37° C. and an atmosphere of 5% CO2.
• The effect of representative Compounds of the Disclosure on cell viability was determined using Cell Counting Kit-8 (CCK-8) assay (Shanghai Life iLab Biotech) according to the manufacturer's instructions. Each tested compound was serially diluted in culture medium, and 100 μL of the compound dilution was added to the corresponding well of the cell plate. 100 μL of MV-4-11 cell suspension (20000 cells/well) in culture medium were seeded into 96-well plates. The cells were incubated at 37° C. in an atmosphere of 5% CO2 for 3 days. At the end of 3 days, 20 μL of CCK-8 solution was added to each well of the plate and incubated for 1-4 hours. The plates were read at 450 nm on the Biotek plate reader. The readings were normalized to the vehicle cells, and the IC50 was calculated using GraphPad Prism 8 software.

The subject of the next test is RS4; 11Bcl-2-G101V cells. Briefly: CellTiter-Glo (CTG) cell viability assay in RS4;11-Bcl-2-G101V cells. Type of test: cell-based. Particulars: 72 h, 10% FBS, 3 days. As to the method: RS4; 11Bcl-2-G101V, RS4; 11Bcl-2-D103E, RS4; 11Bcl-2-V156D and RS4; 11Bcl-2-G101V-D103E cells were obtained from Cobioer Biosciences. Cells were maintained in the RPMI-1640 medium with 10% FBS, 1% P/S and puromycin (1 μg/mL) at 37° C. and an atmosphere of 5% CO2.
• The effect of representative Compounds of the Disclosure on cell viability was determined using CellTiter-Glo® (CTG) luminescent cell viability assay (Promega, USA) according to the manufacturer's instructions. 95 μL of cell suspension (10000 cells/well) in culture medium were seeded into 96-well plates and cultured 4 hours. Each tested compound was serially diluted in blank culture medium, and 5 μL of the compound dilution was added to the corresponding well of the cell plate. After the addition of the tested compound, the cells were incubated at 37° C. in an atmosphere of 5% CO2 for 3 days. At the end of 3 days, 30 μL of CTG solution was added to each well of the plate and mix contents for 2 minutes on an orbital shaker. Allow the plate to incubate at room temperature for 15 mins to stabilize signal and record RLU on the Biotek plate reader. The readings were normalized to the vehicle cells, and the IC50 was calculated using GraphPad Prism 8 software.

For orientation: IC50 means the concentration that gives 50% inhibition. A lower IC50 goes with greater potency.

Take `CC(C)c1ccc(C2=C(CN3CCN(c4ccc(C(=O)NS(=O)(=O)c5ccc(NC[C@H]6COCCO6)c([N+](=O)[O-])c5)c(Oc5cnc6[nH]ccc6c5)c4)CC3)CCC(C)(C)C2)s1` [Example 14, (S)—N-((4-(((1,4-dioxan-2-yl)methyl)amino)-3-nitrophenyl)sulfonyl)-2-((1H-pyrrolo[2,3-b]pyridin-5-yl)oxy)-4-(4-((2-(5-isopropylthiophen-2-yl)-4,4-dimethylcyclohex-1-en-1-yl)methyl)piperazin-1-yl)benzamide]: the values for the half-maximal inhibitory concentration (IC50) with MV-4-11 cells and in the test on RS4; 11Bcl-2-G101V cells were 0.098 µM and 2.66 µM, respectively.
On to `CC(C)c1cscc1C1=C(CN2CCN(c3ccc(C(=O)NS(=O)(=O)c4ccc(NC[C@H]5COCCO5)c([N+](=O)[O-])c4)c(Oc4cnc5[nH]ccc5c4)c3)CC2)CCC(C)(C)C1` [Example 9, (S)—N-((4-(((1,4-dioxan-2-yl)methyl)amino)-3-nitrophenyl)sulfonyl)-2-((1H-pyrrolo[2,3-b]pyridin-5-yl)oxy)-4-(4-((2-(4-isopropylthiophen-3-yl)-4,4-dimethylcyclohex-1-en-1-yl)methyl)piperazin-1-yl)benzamide], for which the results for the half-maximal inhibitory concentration (IC50) with MV-4-11 cells and in the test with RS4; 11Bcl-2-G101V cells were 0.167 µM and 5.42 µM, respectively.
Taken in the same sequence, the figures for `CC(C)c1cscc1C1=C(CN2CCN(c3ccc(C(=O)NS(=O)(=O)c4ccc(NCC5CCOCC5)c([N+](=O)[O-])c4)c(Oc4cnc5[nH]ccc5c4)c3)CC2)CCC(C)(C)C1` [Example 7, 2-((1H-pyrrolo[2,3-b]pyridin-5-yl)oxy)-4-(4-((2-(4-isopropylthiophen-3-yl)-4,4-dimethylcyclohex-1-en-1-yl)methyl)piperazin-1-yl)-N-((3-nitro-4-(((tetrahydro-2H-pyran-4-yl)methyl)amino)phenyl)sulfonyl)benzamide] were 0.209 µM and 4.27 µM.
For the compound `CC1(C)CCC(CN2CCN(c3ccc(C(=O)NS(=O)(=O)c4ccc(NC[C@H]5COCCO5)c([N+](=O)[O-])c4)c(Oc4cnc5[nH]ccc5c4)c3)CC2)=C(c2cc(CN3CC4(C3)CN(S(C)(=O)=O)C4)cs2)C1` [Example 27], the IC50 was 0.126 µM with MV-4-11 cells and 1.04 µM with RS4; 11Bcl-2-G101V cells.
`Cc1csc(C2=C(CN3CCN(c4ccc(C(=O)NS(=O)(=O)c5ccc(NCC6CCOCC6)c([N+](=O)[O-])c5)c(Oc5cnc6[nH]ccc6c5)c4)CC3)CCC(C)(C)C2)c1` [Example 5, 2-((1H-pyrrolo[2,3-b]pyridin-5-yl)oxy)-4-(4-((4,4-dimethyl-2-(4-methylthiophen-2-yl)cyclohex-1-en-1-yl)methyl)piperazin-1-yl)-N-((3-nitro-4-(((tetrahydro-2H-pyran-4-yl)methyl)amino)phenyl)sulfonyl)benzamide]: the IC50 came out at 0.079 µM in the test with MV-4-11 cells and 3.82 µM in the test on RS4; 11Bcl-2-G101V cells.
For `Cc1cc(C(C)(C)O)cc(C)c1-c1csc(C2=C(CN3CCN(c4ccc(C(=O)NS(=O)(=O)c5ccc(NC[C@H]6CC[C@](C)(O)CC6)c([N+](=O)[O-])c5)c(Oc5cnc6[nH]ccc6c5)c4)CC3)CCC(C)(C)C2)c1` [Example 65, 2-((1H-pyrrolo[2,3-b]pyridin-5-yl)oxy)-N-((4-((((1r,4r)-4-hydroxy-4-methylcyclohexyl)methyl)amino)-3-nitrophenyl)sulfonyl)-4-(4-((2-(4-(4-(2-hydroxypropan-2-yl)-2,6-dimethylphenyl)thiophen-2-yl)-4,4-dimethylcyclohex-1-en-1-yl)methyl)piperazin-1-yl)benzamide], in that order: 0.192 µM and 0.598 µM.
Taken in the same sequence, the figures for `COC(C)(C)c1ccc(-c2csc(C3=C(CN4CCN(c5ccc(C(=O)NS(=O)(=O)c6ccc(NC[C@H]7CC[C@](C)(O)CC7)c([N+](=O)[O-])c6)c(Oc6cnc7[nH]ccc7c6)c5)CC4)CCC(C)(C)C3)c2)c(F)c1` [Example 76, 2-((1H-pyrrolo[2,3-b]pyridin-5-yl)oxy)-4-(4-((2-(4-(2-fluoro-4-(2-methoxypropan-2-yl)phenyl)thiophen-2-yl)-4,4-dimethylcyclohex-1-en-1-yl)methyl)piperazin-1-yl)-N-((4-((((1r,4r)-4-hydroxy-4-methylcyclohexyl)methyl)amino)-3-nitrophenyl)sulfonyl)benzamide] were 0.095 µM and 1.7 µM.
For the compound `CC1(C)CCC(CN2CCN(c3ccc(C(=O)NS(=O)(=O)c4ccc(NC[C@H]5CC[C@](C)(O)CC5)c([N+](=O)[O-])c4)c(Oc4cnc5[nH]ccc5c4)c3)CC2)=C(c2cc(C#Cc3ccc(F)cc3)cs2)C1` [Example 61, 2-((1H-pyrrolo[2,3-b]pyridin-5-yl)oxy)-4-(4-((2-(4-((4-fluorophenyl)ethynyl)thiophen-2-yl)-4,4-dimethylcyclohex-1-en-1-yl)methyl)piperazin-1-yl)-N-((4-((((1r,4r)-4-hydroxy-4-methylcyclohexyl)methyl)amino)-3-nitrophenyl)sulfonyl)benzamide], the half-inhibitory concentration (IC50) with MV-4-11 cells was determined as 0.107 µM; with RS4; 11Bcl-2-G101V cells, 3.18 µM.
For `CC1(C)CCC(CN2CCN(c3ccc(C(=O)NS(=O)(=O)c4ccc(NC[C@H]5COCCO5)c([N+](=O)[O-])c4)c(Oc4cnc5[nH]ccc5c4)c3)CC2)=C(c2cc(Nc3ccc(F)cc3F)cs2)C1` [Example 20, (S)—N-((4-(((1,4-dioxan-2-yl)methyl)amino)-3-nitrophenyl)sulfonyl)-2-((1H-pyrrolo[2,3-b]pyridin-5-yl)oxy)-4-(4-((2-(4-((2,4-difluorophenyl)amino)thiophen-2-yl)-4,4-dimethylcyclohex-1-en-1-yl)methyl)piperazin-1-yl)benzamide], in that order: above 1 µM and above 10 µM.
Regarding `CC1(C)CCC(CN2CCN(c3ccc(C(=O)NS(=O)(=O)c4ccc(NC[C@H]5CC[C@](C)(O)CC5)c([N+](=O)[O-])c4)c(Oc4cnc5[nH]ccc5c4)c3)CC2)=C(c2cc(-c3c(F)cc(C4(O)CCC4)cc3F)cs2)C1` [Example 77, 2-((1H-pyrrolo[2,3-b]pyridin-5-yl)oxy)-4-(4-((2-(4-(2,6-difluoro-4-(1-hydroxycyclobutyl)phenyl)thiophen-2-yl)-4,4-dimethylcyclohex-1-en-1-yl)methyl)piperazin-1-yl)-N-((4-((((1r,4r)-4-hydroxy-4-methylcyclohexyl)methyl)amino)-3-nitrophenyl)sulfonyl)benzamide], the half-inhibitory concentration (IC50) in the test on MV-4-11 cells was 0.025 µM; in the test with RS4; 11Bcl-2-G101V cells it was 0.49 µM.
As to `CC1(C)CCC(CN2CCN(c3ccc(C(=O)NS(=O)(=O)c4ccc(NC[C@H]5CC[C@](C)(O)CC5)c([N+](=O)[O-])c4)c(Oc4cnc5[nH]ccc5c4)c3)CC2)=C(c2cc(-c3c(Cl)cc(C(C)(C)O)cc3Cl)cs2)C1` [Example 66, 2-((1H-pyrrolo[2,3-b]pyridin-5-yl)oxy)-4-(4-((2-(4-(2,6-dichloro-4-(2-hydroxypropan-2-yl)phenyl)thiophen-2-yl)-4,4-dimethylcyclohex-1-en-1-yl)methyl)piperazin-1-yl)-N-((4-((((1r,4r)-4-hydroxy-4-methylcyclohexyl)methyl)amino)-3-nitrophenyl)sulfonyl)benzamide], the 50% inhibitory concentration (IC50) with MV-4-11 cells was determined as 0.132 µM; in the test with RS4; 11Bcl-2-G101V cells it was 0.361 µM.
Taken in the same sequence, the figures for `CC(C)c1ccc(C2=C(CN3CCN(c4ccc(C(=O)NS(=O)(=O)c5ccc(NCC6CCOCC6)c([N+](=O)[O-])c5)c(Oc5cnc6[nH]ccc6c5)c4)CC3)CCC(C)(C)C2)s1` [Example 12, 2-((1H-pyrrolo[2,3-b]pyridin-5-yl)oxy)-4-(4-((2-(5-isopropylthiophen-2-yl)-4,4-dimethylcyclohex-1-en-1-yl)methyl)piperazin-1-yl)-N-((3-nitro-4-(((tetrahydro-2H-pyran-4-yl)methyl)amino)phenyl)sulfonyl)benzamide] were 0.164 µM and 4.03 µM.
Take `CC(C)c1sccc1C1=C(CN2CCN(c3ccc(C(=O)NS(=O)(=O)c4ccc(NC[C@H]5COCCO5)c([N+](=O)[O-])c4)c(Oc4cnc5[nH]ccc5c4)c3)CC2)CCC(C)(C)C1` [Example 13, (S)—N-((4-(((1,4-dioxan-2-yl)methyl)amino)-3-nitrophenyl)sulfonyl)-2-((1H-pyrrolo[2,3-b]pyridin-5-yl)oxy)-4-(4-((2-(2-isopropylthiophen-3-yl)-4,4-dimethylcyclohex-1-en-1-yl)methyl)piperazin-1-yl)benzamide]: the IC50 came out at 0.025 µM in the test on MV-4-11 cells and 1.79 µM in the test on RS4; 11Bcl-2-G101V cells.
Take `CC1(C)CCC(CN2CCN(c3ccc(C(=O)NS(=O)(=O)c4ccc(NC[C@H]5COCCO5)c([N+](=O)[O-])c4)c(Oc4cnc5[nH]ccc5c4)c3)CC2)=C(c2cc(-c3c(F)cc(F)c4cc[nH]c34)cs2)C1` [Example 57, (S)—N-((4-(((1,4-dioxan-2-yl)methyl)amino)-3-nitrophenyl)sulfonyl)-2-((1H-pyrrolo[2,3-b]pyridin-5-yl)oxy)-4-(4-((2-(4-(4,6-difluoro-1H-indol-7-yl)thiophen-2-yl)-4,4-dimethylcyclohex-1-en-1-yl)methyl)piperazin-1-yl)benzamide]: the 50% inhibitory concentration (IC50) was 1.21 µM in the test on MV-4-11 cells and 5.81 µM in the test on RS4; 11Bcl-2-G101V cells.
